Series [1] addresses recombinant DYRK1A kinase (Homo sapiens (Human), UniProt Q13627). The series is described as follows: DYRK1A kinase assay (Ser/Thr 18 peptide Z-lyte, FRET). The class given is biochemical. As to conditions: 30 μM ATP, one hour at room temperature, read-out: EC50 (μM) (IC50 per method). The text has this: Representative compounds were screened using the assay procedure for DYRK1A kinase activity as described below.
The DYRK1A kinase assay was run using the Ser/Thr 18 peptide Z-lyte assay kit according to manufacturer's instructions (Life Technologies—a Division of Thermo-Fisher). This is a non-radioactive assay using fluorescence resonance energy transfer (FRET) between coumarin and fluorescein to detect kinase activity which is represented as a ratio of coumarin emission/fluorescein emission.
Briefly, recombinant DYRK1A kinase, ATP and Ser/Thr peptide 18 were prepared in 1× Kinase buffer to final concentrations of 0.19 μg/mL, 30 μM, and 4 μM respectively. The mixture was allowed to incubate with the representative compounds for one hour at room temperature. All reactions were performed in duplicate. Unphosphorylated (“0% Control”) and phosphorylated (“100% control”) forms of Ser/Thr 18 served as control reactions. Additionally, an 11-point dose-response curve of Staurosporine (1 uM top) was run to serve as a positive compound control.
After incubation, Development Reagent A was diluted in Development Buffer then added to the reaction and allowed to further incubate for one hour at room temperature. The plate was read at Ex 400 Em 455 to detect the coumarin signal and Ex 400 Em 520 to measure the signal (EnVision Multilabel Plate Reader, PerkinElmer).
The Emission ratio (Em) was calculated as a ratio of the coumarin (C) emission signal (at 445 nm)/Fluorescein (F) emission signal (at 520 nm). The percent phosphorylation was then calculated using the following formula: [1−((Em ratio×F100%)−C100%)/((C0%−C100%)+(Em ratio×(F100%−F0%)))].

Series [2] has as its system Wnt activity (Sp5-Luc reporter, SW480 colon carcinoma cells). The series is described as follows: Sp5-Luc reporter gene screening assay for Wnt activity in SW480 cells. The format is cell-based. As to conditions: Homo sapiens; Sp5-Luc reporter, SW480 cells, 36 to 48 hours. The text has this:
The screening assay for Wnt activity is described as follows. Reporter cell lines can be generated by stably transducing cancer cell lines (e.g., colon cancer) or primary cells (e.g., IEC-6 intestinal cells) with a lentiviral construct that includes a Wnt-responsive promoter driving expression of the firefly luciferase gene.
SW480 colon carcinoma cells were transduced with a lentiviral vector expressing luciferase with a human Sp5 promoter consisting of a sequence of eight TCF/LEF binding sites. SW480 cells stably expressing the Sp5-Luc reporter gene and a hygromycin resistance gene were selected by treatment with 150 μg/mL of hygromycin for 7 days. These stably transduced SW480 cells were expanded in cell culture and used for all further screening activities. […] For Sp5-Luc reporter gene assays, the cells were plated at 4,000 cells/well in 384-well plates with a DMEM medium containing 1% fetal bovine serum, and 1% Penicillin-Streptomycin and incubated for 36 to 48 hours at 37° C. and 5% CO2. Following incubation, 15 μl of BriteLite Plus luminescence reagent (Perkin Elmer) was added to each well of the 384-well assay plates. The plates were placed on an orbital shaker for 2 min and then luminescence was quantified using the Envision (Perkin Elmer) plate reader. Readings were normalized to DMSO only treated cells, and normalized activities were utilized for EC50 calculations using the dose-response log (inhibitor) vs. response-variable slope (four parameters) nonlinear regression feature available in GraphPad Prism 5.0 (or Dotmatics).

Series [3] has as its system primary human fibroblasts derived from IPF patients (LL29 cells). The series is described as follows: Inhibition of TGF-β1 induced fibrosis (αSMA staining) in LL29 fibroblasts. The class given is cell-based. The settings on record: Fibroblast, 96 h, LL29 cells, TGF-β1 20 ng/mL, 4 days, % αSMA positive cells. The protocol: Representative compounds were screened using primary human fibroblasts (derived from IPF patients) treated with TGF-β1 to determine their ability to inhibit the fibrotic process.
LL29 cells were plated at 1,500 cells/well in 70 μL/well F12 medium supplemented with 1% Fetal Bovine Serum. […] Wells treated with TGF-β1 and containing DMSO were used as positive control, and cells with only DMSO were negative control. […] Following incubation for 4 days, SYTOX green nucleic acid stain (Life Technologies [Thermo Fisher Scientific]) was added to the wells at a final concentration of 1 μM and incubated at room temperature for 30 min.

Series [4] relates to SW480 colon carcinoma cells. The series is described as follows: Cell viability assay (CellTiter-Glo) in SW480 cells. The class given is cell-based. As to conditions: Homo sapiens; for EC50: 96 h, SW480 cell viability, four days, CellTiter-Glo. The protocol: Representative compounds were screened using the assay procedure to assess the effect on cell viability as described below.
SW480 colon carcinoma cells were transduced with a lentiviral vector expressing luciferase with a human Sp5 promoter consisting of a sequence of eight TCF/LEF binding sites. SW480 cells stably expressing the Sp5-Luc reporter gene and a hygromycin resistance gene were selected by treatment with 150 μg/mL of hygromycin for 7 days. These stably transduced SW480 cells were expanded in cell culture and used for all further screening activities.
For the Cell Viability Assays, the cells were plated at 2,000 cells/well in 384-well plates with a DMEM medium containing 1% fetal bovine serum, and 1% Penicillin-Streptomycin and incubated for […] at 37° C. and 5% CO2. Eight replicates of DMSO-treated cells served as controls and cells treated with compound were performed in duplicate.
After incubation, 10 μL of CellTiter-Glo (Promega) was added to each well allowed to incubate for approximately 12 minutes. This reagent “results in cell lysis and generation of a luminescent signal proportional to the amount of ATP present. The amount of ATP is directly proportional to the number of cells present in culture, in agreement with previous reports. The CellTiter-Glo Assay generates a “glow-type” luminescent signal, produced by the luciferase reaction (Promega.com)”.

In another series the target is recombinant GSK3β kinase (Homo sapiens (Human), UniProt P49841). The series is described as follows: GSK3β kinase assay (Ser/Thr 09 peptide Z-lyte, FRET). The class given is biochemical. The settings on record: 46 μM ATP, one hour at room temperature, read-out: EC50 (μM) (IC50 per method). The source says: Representative compounds were screened using the assay procedure for GSK3β kinase activity as described below.
The GSK3β kinase assay is run using the Ser/Thr 09 peptide Z-lyte assay kit according to manufacturer's instructions (Life Technologies—a Division of Thermo-Fisher). This is a non-radioactive assay using fluorescence resonance energy transfer (FRET) between coumarin and fluorescein to detect kinase activity which is represented as ratio of coumarin emission/fluorescein emission.
Briefly, recombinant GSK3β kinase, ATP and Ser/Thr peptide 09 are prepared in 1× Kinase buffer to final concentrations of 0.04 μg/mL, 46 μM, and 4 μM respectively. The mixture is allowed to incubate with the representative compounds for one hour at room temperature. All reactions were performed in duplicate. Unphosphorylated (“0% Control”) and phosphorylated (“100% control”) forms of […] serve as control reactions.
After incubation, diluted Development Buffer is added to the reaction and allowed to further incubate for one hour at room temperature. The plate is read at Ex 400 Em 455 to detect the coumarin signal and Ex 400 Em 520 to measure the signal (EnVision Multilabel Plate Reader, PerkinElmer).
The Emission ratio (Em) is calculated as a ratio of the coumarin (C) emission signal (at 445 nm)/Fluorescein (F) emission signal (at 520 nm). The percent phosphorylation is then calculated using the following formula: [1−((Em ratio×F100%)−C100%)/((C0%−C100%)+(Em ratio×(F100%−F0%)))].
Dose-response curves are generated and inhibitory concentration (IC50) values are calculated using non-linear regression curve fit in the Dotmatics' Studies Software (Bishops Stortford, UK).

Series [5] relates to primary human mesenchymal stem cells (hMSCs). The series is described as follows: Chondrogenesis induction in hMSCs (Rhodamine B staining intensity, EC50). As to conditions: 6 days, Rhodamine B staining intensity of nodules. The format is cell-based. The source says:
Representative compounds were screened using primary human mesenchymal stem cells (hMSCs) to determine their ability to induce chondrogenesis (process by which cartilage is developed).
Primary human mesenchymal stem cells (hMSCs) were purchased from Lonza (Walkersville, Md.) and expanded in Mesenchymal Stem Cell Growth Media (Lonza). Cells between passage 2 and 4 were used for the experiments.
To image chondrogenic nodules, the cells were fixed using 4% formaldehyde (Electron Microscopy Sciences), and stained with 2 μg/mL Rhodamine B (Sigma-Aldrich) and 20 μM Nile Red (Sigma-Aldrich) [Johnson K., et. al, A Stem Cell-Based Approach to Cartilage Repair, Science, (2012), 336(6082). […] Rhodamine B staining intensity of nodules in each well was normalized to the average of 3 DMSO treated wells on the same plate using Excel (Microsoft Inc.). The normalized averages (fold change over DMSO) of 3 replicate wells for each compound concentration were calculated. EC50 values were calculated using non-linear regression curve fitting in Prism 8 (Graphpad Inc.). Due to solubility limitations of some of the compounds, curve fitting was incomplete, and the highest observed activity was extrapolated to the insoluble doses for accurate EC50 determinations.
EC50 values are reported. Further, using TGF-β3 as a positive control, the concentration of representative compounds required to induce equivalent levels of chondrogenesis is reported. In addition, the maximum activity of each compound and the respective dose that each compound reached maximum chondrogenesis activity is reported.

For series [6] the following is noted: DMF.

One may read the IC50 as the concentration needed to halve the response being measured. As usually defined, the EC50 is the concentration at which the effect is half-maximal. High values mean a need for much substance, low ones an effect from little substance. By inhibition is commonly meant the relative decrease from the control value, in per cent.

Like-named read-outs stand apart in the source and are kept apart here. A value given as a limit tells only on which side of the number the result lay.

Sequence of recombinant GSK3β kinase (P49841 whole entry): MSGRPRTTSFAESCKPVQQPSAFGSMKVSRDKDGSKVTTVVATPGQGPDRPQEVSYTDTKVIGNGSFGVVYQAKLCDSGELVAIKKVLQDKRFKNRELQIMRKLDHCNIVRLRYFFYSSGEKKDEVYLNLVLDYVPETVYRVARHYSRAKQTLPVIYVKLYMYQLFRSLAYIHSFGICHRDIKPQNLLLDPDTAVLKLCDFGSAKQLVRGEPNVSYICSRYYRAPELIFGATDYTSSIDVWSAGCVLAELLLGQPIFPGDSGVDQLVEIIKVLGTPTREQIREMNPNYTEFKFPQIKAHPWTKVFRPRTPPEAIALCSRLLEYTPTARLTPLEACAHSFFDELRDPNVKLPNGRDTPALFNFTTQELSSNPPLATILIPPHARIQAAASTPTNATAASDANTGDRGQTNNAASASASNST

`O=C1CCCc2cccc(c2)-c2cccc3[nH]c(nc23)-c2n[nH]c3ccc(cc23)-c2cncc(c2)N1` [Compound 71]: the IC50 (in series [1]; on recombinant GSK3β kinase) was 0.014 µM each time. The EC50 in series [2] was determined as 17 nM; in series [3], 21 nM; in series [4], 35 nM; in series [5], 3120 nM.

In series [6] (amine bond, 18-membered ring, KI/DIEA, 42.4 mM, 90.0 °C), “(Z)-5,10-Dimethyl-1^1H,2^1H-5,10-diaza-1(2,4)-imidazo[4,5-c]pyridina-2(3,5)-indazola-3(3,5)-pyridinacyclodecaphane” registered a ring closure, isolated yield of 9.7%.

The compound `CN1CCCn2cc(nn2)-c2nccc3[nH]c(nc23)-c2n[nH]c3ccc(cc23)-c2cncc(c2)C1` registered a ring closure, isolated yield in series [6] (from CNCc1cncc(-c2ccc3[nH]nc(-c4nc5c(-c6cn(CCCCl)nn6)nccc5[nH]4)c3c2)c1, amine bond, 19-membered ring, DIEA, 16.7 mM, 100.0 °C) of 71.9%.

`O=C1CCc2cccc(c2)-c2ccnc3[nH]c(nc23)-c2n[nH]c3ccc(cc23)-c2cncc(c2)N1` [Compound 4, (Z)-2^3H,3^1H-5-aza-2(7,2)-imidazo[4,5-b]pyridina-3 (3,5)-indazola-4(3,5)-pyridina-1(1,3)-benzenacyclooctaphan-6-one]: the IC50 came out at 0.204 µM in series [1] and 0.494 µM on recombinant GSK3β kinase. The EC50 in series [2] was 7660 nM; in series [4], more than 10000 nM; in series [5], 69 nM. The inhibition at 10 µM in series [4] (SW480, read-out: percent inhibition at 10 μM) came out at 49.5%.

Regarding `O=C1CCc2cccc(c2)-c2cccc3[nH]c(nc23)-c2nn(C(c3ccccc3)(c3ccccc3)c3ccccc3)c3ccc(cc23)-c2cncc(c2)N1`, the ring closure, isolated yield in series [6] (from Nc1cncc(-c2ccc3c(c2)c(-c2nc4c(-c5cccc(CCC(=O)O)c5)cccc4[nH]2)nn3C(c2ccccc2)(c2ccccc2)c2ccccc2)c1, amide bond, 18-membered ring, HATU/DIEA/DMAP, 17.5 mM, 70.0 °C) was 49.2%.

In series [6] (from Oc1cncc(-c2ccc3c(c2)c(-c2nc4c(-c5cccc(CCCBr)c5)cccc4[nH]2)nn3C(c2ccccc2)(c2ccccc2)c2ccccc2)c1, ether bond, 18-membered ring, K2CO3, 20.0 mM, 80.0 °C), `c1ccc(C(c2ccccc2)(c2ccccc2)n2nc3c4cc(ccc42)-c2cncc(c2)OCCCc2cccc(c2)-c2cccc4[nH]c-3nc24)cc1` showed a ring closure, isolated yield of 50.8%.

Regarding `c1cc2cc(c1)-c1cccc3[nH]c(nc13)-c1n[nH]c3ccc(cc13)-c1cncc(n1)NCCO2` [Compound 109], the 50% inhibitory concentration (IC50) in series [1] is 0.096 µM; on recombinant GSK3β kinase it was 0.062 µM. Also, the EC50 in series [2] was 34 nM; in series [4] it was 54 nM; in series [5], 9 nM. Moreover, in series [6] (from NCCOc1cccc(-c2cccc3[nH]c(-c4n[nH]c5ccc(-c6cncc(Cl)n6)cc45)nc23)c1, snar bond, 18-membered ring, DIEA, 19.0 mM, 110.0 °C), the ring closure, isolated yield turned out to be 26.4%.

These data come from US10759799B2, “Indazole containing macrocycles and therapeutic uses thereof” (Samumed, LLC, priority 2018, dated 2020).
